Results from ChEMBL document CHEMBL1201862, “PubChem BioAssay data set” (2004).
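These data come from cells grown in 96-well plates and exposed to compound for 48 hours at five concentrations. GI50: concentration for 50% inhibition of growth.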 Activity calls are given as the source filed them. Rule as the data show it: active = GI50 up to about 1.1 µM and inactive = higher.

What was measured:
Test in all cases: inhibition of tumour cell growth, NCI panel, 48 h
786-0 = system: 786-0
HCC 2998 = system: HCC 2998
HL-60 = system: HL-60
LOX IMVI = system: LOX IMVI
EKVX = system: EKVX
HOP-92 = system: HOP-92
SF-268 = system: SF-268
OVCAR-8 = system: OVCAR-8
RXF 393 = system: RXF 393
SN12C = system: SN12C
DMS-114 = system: DMS-114
K562 = system: K562
CAKI-1 = system: CAKI-1
CCRF-CEM = system: CCRF-CEM
OVCAR-5 = system: OVCAR-5
UO-31 = system: UO-31
UACC-257 = system: UACC-257
OVCAR-3 = system: OVCAR-3
NCI-H23 = system: NCI-H23
RPMI-8226 = system: RPMI-8226
SK-OV-3 = system: SK-OV-3
SNB-19 = system: SNB-19
SW-620 = system: SW-620
SNB-75 = system: SNB-75
U-251 = system: U-251
MOLT-4 = system: MOLT-4
OVCAR-4 = system: OVCAR-4
DLD-1 = system: DLD-1
LXFL 529 = system: LXFL 529
TK-10 = system: TK-10
HCT-15 = system: HCT-15
SF-539 = system: SF-539
HCT-116 = system: HCT-116
ACHN = system: ACHN
DMS-273 = system: DMS-273
M19-MEL = system: M19-MEL
SK-MEL-5 = system: SK-MEL-5
SK-MEL-2 = system: SK-MEL-2
A549 = system: A549
UACC-62 = system: UACC-62
KM12 = system: KM12
M14 = system: M14
NCI-H460 = system: NCI-H460
NCI-H522 = system: NCI-H522
COLO 205 = system: COLO 205
IGROV-1 = system: IGROV-1
SF-295 = system: SF-295
SNB-78 = system: SNB-78
A498 = system: A498
HOP-62 = system: HOP-62
Malme-3M = system: Malme-3M
SK-MEL-28 = system: SK-MEL-28

CCOc1ccccc1C=C1c2ccccc2C(=O)c2ccccc21
GI50 (786-0): 3.38 µM (inactive) | GI50 (HCC 2998): 3.63 µM (inactive) | GI50 (HL-60): 2.99 µM (inactive) | GI50 (LOX IMVI): 8.69 µM (inactive) | GI50 (EKVX): 3.23 µM (inactive) | GI50 (HOP-92): 5.48 µM (inactive) | GI50 (SF-268): 5.07 µM (inactive) | GI50 (OVCAR-8): 5.27 µM (inactive) | GI50 (RXF 393): 2.04 µM (inactive) | GI50 (SN12C): 6.56 µM (inactive) | GI50 (DMS-114): 3.42 µM (inactive) | GI50 (K562): 3.32 µM (inactive) | GI50 (CAKI-1): 2.11 µM (inactive) | GI50 (CCRF-CEM): 4.32 µM (inactive) | GI50 (OVCAR-5): 12.8 µM (inactive) | GI50 (UO-31): 2.59 µM (inactive) | GI50 (UACC-257): 4.21 µM (inactive) | GI50 (OVCAR-3): 2.5 µM (inactive) | GI50 (NCI-H23): 4.06 µM (inactive) | GI50 (RPMI-8226): 3.81 µM (inactive) | GI50 (SK-OV-3): 3.03 µM (inactive) | GI50 (SNB-19): 3.63 µM (inactive) | GI50 (SW-620): 3.72 µM (inactive) | GI50 (SNB-75): 2.17 µM (inactive) | GI50 (U-251): 4.37 µM (inactive) | GI50 (MOLT-4): 4.3 µM (inactive) | GI50 (OVCAR-4): 22.1 µM (inactive) | GI50 (DLD-1): 2.55 µM (inactive) | GI50 (LXFL 529): 6.98 µM (inactive) | GI50 (TK-10): 4.56 µM (inactive) | GI50 (HCT-15): 0.804 µM | GI50 (SF-539): 2.16 µM (inactive) | GI50 (HCT-116): 4.63 µM (inactive) | GI50 (ACHN): 8.63 µM (inactive) | GI50 (DMS-273): 0.535 µM (active) | GI50 (M19-MEL): 5.93 µM (inactive) | GI50 (SK-MEL-5): 2.75 µM (inactive) | GI50 (SK-MEL-2): 2.94 µM (inactive) | GI50 (A549): 5.16 µM (inactive) | GI50 (UACC-62): 3.34 µM (inactive) | GI50 (KM12): 0.673 µM (active) | GI50 (M14): 5.83 µM (inactive) | GI50 (NCI-H460): 4.15 µM (inactive) | GI50 (NCI-H522): 2.36 µM (inactive) | GI50 (COLO 205): 3.78 µM (inactive) | GI50 (IGROV-1): 3.58 µM (inactive) | GI50 (SF-295): 3.82 µM (inactive) | GI50 (SNB-78): 5.75 µM (inactive) | GI50 (A498): 6.75 µM (inactive) | GI50 (HOP-62): 3.76 µM (inactive) | GI50 (Malme-3M): 8.15 µM (inactive) | GI50 (SK-MEL-28): 12 µM (inactive)
